{"source": "ChEMBL document CHEMBL3046472", "about": "“QSAR modeling of photosynthesis-inhibiting nostoclide derivatives” (Pest Manag Sci, 2010)", "note": "Active and inactive are the calls of the source. The calls are words filed in the database; no cut-off is given here."}
{"target": "Cytochrome b6-f complex subunit 4 (Spinacia oleracea) (UniProt P00166)", "sequence (P00166 whole entry, looked up, one chain of several)": "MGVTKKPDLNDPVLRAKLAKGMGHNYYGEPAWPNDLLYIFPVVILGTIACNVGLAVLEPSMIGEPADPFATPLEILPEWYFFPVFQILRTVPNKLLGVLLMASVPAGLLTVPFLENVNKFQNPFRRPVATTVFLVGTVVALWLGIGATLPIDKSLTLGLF", "test": "Inhibition of photosynthetic electron transport protein complex in Spinacia oleracea (spinach) leaf thylakoid membranes up to 100 uM measured at 30 seconds intervals for 10 min"}
{"smiles": "O=C1O/C(=C\\c2ccc(O)cc2)C=C1Cc1ccccc1", "inhibition": "inactive"}
{"smiles": "N#Cc1ccc(/C=C2/C=C(Cc3ccccc3)C(=O)O2)cc1", "inhibition": "inactive"}
{"smiles": "CN(C)c1ccc(/C=C2/C=C(Cc3ccccc3)C(=O)O2)cc1", "inhibition": "inactive"}
{"smiles": "O=C1O/C(=C\\c2cccc(O)c2)C=C1Cc1ccccc1", "inhibition": "inactive"}
{"smiles": "COc1ccc(/C=C2/C=C(Cc3ccccc3)C(=O)O2)cc1O", "inhibition": "inactive"}
{"smiles": "O=C1O/C(=C\\c2ccc(Cl)cc2)C=C1Cc1ccccc1", "inhibition": "inactive"}
{"smiles": "Cc1ccc(/C=C2/C=C(Cc3ccccc3)C(=O)O2)cc1", "inhibition": "inactive"}
{"smiles": "O=C1O/C(=C\\c2ccc3c(c2)OCO3)C=C1Cc1ccccc1", "inhibition": "inactive"}
{"smiles": "CN(C)c1ccc(/C=C2/C=C(Cc3ccccc3)C(=O)O2)c(Cl)c1", "inhibition": "inactive"}
{"smiles": "O=C1O/C(=C\\c2ccc(-c3ccccc3)cc2)C=C1Cc1ccccc1", "inhibition": "inactive"}
{"smiles": "N#Cc1cccc(/C=C2/C=C(Cc3ccccc3)C(=O)O2)c1", "inhibition": "inactive"}
{"smiles": "O=C1O/C(=C\\c2ccc(Br)cc2)C=C1Cc1ccccc1", "inhibition": "inactive"}
{"smiles": "O=C1O/C(=C\\c2ccccc2O)C=C1Cc1ccccc1", "inhibition": "inactive"}
